Values of other authors, collected in patent US9040513B2, “Process for preparing platinum-carbene complexes” (CENTRE NATIONAL DE LA RECHERCHE SCIENTIFIQUE, priority 2010, dated 2015).

Molecular target: integrin αvβ3 (Homo sapiens, UniProt P05106+P06756)
Conditions: background statement

Sequence of integrin αvβ3 (P06756 31-889 limits assumed): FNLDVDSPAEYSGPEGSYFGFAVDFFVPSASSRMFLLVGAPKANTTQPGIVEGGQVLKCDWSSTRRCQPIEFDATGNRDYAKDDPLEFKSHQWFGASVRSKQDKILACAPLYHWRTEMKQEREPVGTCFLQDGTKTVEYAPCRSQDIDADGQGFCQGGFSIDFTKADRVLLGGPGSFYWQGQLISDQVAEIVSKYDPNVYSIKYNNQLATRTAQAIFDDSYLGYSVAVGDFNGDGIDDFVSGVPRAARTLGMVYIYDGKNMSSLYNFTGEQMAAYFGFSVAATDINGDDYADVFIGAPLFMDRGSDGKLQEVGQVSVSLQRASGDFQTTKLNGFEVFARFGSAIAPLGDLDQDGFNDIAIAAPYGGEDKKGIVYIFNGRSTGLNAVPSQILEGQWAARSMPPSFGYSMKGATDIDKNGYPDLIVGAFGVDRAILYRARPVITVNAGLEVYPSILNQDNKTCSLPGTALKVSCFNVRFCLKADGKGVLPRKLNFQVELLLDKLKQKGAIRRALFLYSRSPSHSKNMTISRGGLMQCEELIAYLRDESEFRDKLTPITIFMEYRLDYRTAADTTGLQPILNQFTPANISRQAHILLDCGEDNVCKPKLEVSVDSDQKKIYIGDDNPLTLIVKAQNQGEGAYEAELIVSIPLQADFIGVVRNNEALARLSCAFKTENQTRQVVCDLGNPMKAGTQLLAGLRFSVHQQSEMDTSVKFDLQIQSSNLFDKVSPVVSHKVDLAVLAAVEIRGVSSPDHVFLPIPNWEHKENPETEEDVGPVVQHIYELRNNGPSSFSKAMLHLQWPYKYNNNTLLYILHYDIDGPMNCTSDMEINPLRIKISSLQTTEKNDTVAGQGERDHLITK
Sequence of integrin αvβ3 (P06756 891-1048 partner limits assumed): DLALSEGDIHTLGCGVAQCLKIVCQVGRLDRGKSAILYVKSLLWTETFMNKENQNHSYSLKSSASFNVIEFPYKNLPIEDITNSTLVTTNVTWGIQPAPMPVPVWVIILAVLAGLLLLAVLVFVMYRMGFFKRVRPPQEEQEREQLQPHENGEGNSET
Sequence of integrin αvβ3 (P05106 27-788): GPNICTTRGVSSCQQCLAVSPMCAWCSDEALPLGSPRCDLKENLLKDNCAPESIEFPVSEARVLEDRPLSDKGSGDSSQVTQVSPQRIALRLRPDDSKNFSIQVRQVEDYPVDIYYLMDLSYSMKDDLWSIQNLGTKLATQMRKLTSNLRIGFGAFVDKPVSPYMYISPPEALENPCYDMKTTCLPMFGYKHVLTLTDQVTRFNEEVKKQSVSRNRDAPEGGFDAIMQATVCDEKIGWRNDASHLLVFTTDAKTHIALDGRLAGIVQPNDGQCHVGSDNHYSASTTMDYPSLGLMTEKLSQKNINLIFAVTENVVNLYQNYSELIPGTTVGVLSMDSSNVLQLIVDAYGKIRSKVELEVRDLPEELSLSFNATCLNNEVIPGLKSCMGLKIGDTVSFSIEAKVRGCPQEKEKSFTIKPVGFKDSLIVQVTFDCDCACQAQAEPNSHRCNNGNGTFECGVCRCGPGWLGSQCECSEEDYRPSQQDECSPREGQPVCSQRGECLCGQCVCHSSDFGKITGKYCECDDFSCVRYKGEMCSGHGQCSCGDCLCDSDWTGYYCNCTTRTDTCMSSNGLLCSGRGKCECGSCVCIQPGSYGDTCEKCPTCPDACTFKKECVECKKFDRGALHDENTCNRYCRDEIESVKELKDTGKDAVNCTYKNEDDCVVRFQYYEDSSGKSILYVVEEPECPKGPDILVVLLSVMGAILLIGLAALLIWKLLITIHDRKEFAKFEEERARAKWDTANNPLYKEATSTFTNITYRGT

## cyclo(RGDfK)
  affinity for integrin αvβ3: high affinity
